# Assay results reported in publication PMC8411522, “In vitro inhibitory effect of obtusofolin on the activity of CYP3A4, 2C9, and 2E1” (BMC Complementary Medicine and Therapies, 2021).
# Columns and labels:
# [1] = target: T1, CYP3A4 (Homo sapiens, UniProt P08684); assay: CYP3A4 inhibition in pooled human liver microsomes (testosterone 6β-hydroxylation); format: in vitro ADME
# T1 construct: Pooled HLMs were obtained from BD Bioscience (Woburn, USA); tissue BD Bioscience; host or cells: pooled human liver microsomes
# Method: (§1) The investigation was conducted in pool human liver microsomes in vitro. Except for the HLMs treated with 100 μM obtusofolin, specific inhibitors, and negative control HLMs were also employed.
# (§2) The incubation volume was 200 μL containing potassium phosphate buffer (pH 7.4), an NADPH-generating system composed of NADP^+, glucose-6-phosphate, glucose-6-phosphate dehydrogenase, and MgCl2, probe substrates, HLMs, and obtusofolin or positive inhibitors. The experiments for each CYP isoforms were performed in triplicate and the obtained results were represented as mean value ± SD.
# (§3) The reactions were initiated by adding the NADPH-generating system after a 3-min preincubation at 37 °C. The reactions were terminated by adding 100 μL acetonitrile or 10% (v:v) trichloroacetic. The mixture was placed on ice and centrifuged at 12,000 rpm for 10 min. A total of 20 μL supernatant was obtained for the analysis of metabolites by HPLC.
# (§4) Firstly, 100 μM obtusofolin was incubated with the above incubation system in HLMs to evaluate its effect on the activity of CYP450s. Then the dose-dependent experiments were performed to obtain corresponding parameters in the presence of 0, 2.5, 5, 10, 25, 50, and 100 μM obtusofolin. The concentrations of probe substrates were 20–100 μM testosterone for CYP3A4, 5–20 μM diclofenac for CYP2C9, and 25–250 μM chlorzoxazone for CYP2E1.
# (§5) The enzyme kinetic parameters were obtained by the least-squares linear regression. The inhibition data were fitted with non-linear regression according to the following equation: V=VmaxS/Km1+I/Ki+Sfor competitive inhibitionCYP2C9 and 2E1; V=VmaxS/Km+S1+I/Kifor non−competitive inhibitionCYP3A4.
# (§6) where I is the concentration of the compound, Ki is the inhibition constant, S is the concentration of the substrate and Km is the substrate concentration at half the maximum velocity (Vmax) of the reaction. The mechanism of the inhibition was inspected using the Lineweaver–Burk plots and the enzyme inhibition models. The data comparison was performed using the Student’s t-test and performed using IBM SPSS statistics 20 (SPSS Inc., Chicago, IL, USA).
# [2] = design: method as in PMID 33119923; settings: rats, 1.3 mg/kg obtusofolin; cited from earlier work
# [3] = target: T2, CYP2E1 (Homo sapiens, UniProt P05181); assay: CYP2E1 inhibition in pooled human liver microsomes (chlorzoxazone 6-hydroxylation); format: in vitro ADME
# T2 construct: Pooled HLMs were obtained from BD Bioscience (Woburn, USA); tissue BD Bioscience; host or cells: pooled human liver microsomes
# Method: as §1, §2, §3, §4, §5, §6
# [4] = target: T1, CYP3A4; assay: Time-dependent inhibition of CYP3A4 in pooled HLMs; format: in vitro ADME
# Method: (§7) The time-dependent inhibition experiments were conducted at the incubation time of 0, 5, 10, 15, and 30 min at 37 °C with 20 μM obtusofolin. After the incubation, a total of 20 μL aliquot was transferred to another tube with the NADPH-generating system and probe substrates and incubation for a specific time. The reactions were terminated by the addition of acetonitrile and placed on ice for further analysis.
# The time-dependent characteristic was estimated by the values of KI and Kinact obtained from further experiments. The incubation was performed with 0, 2, 5, 10, 20, and 50 μM obtusofolin and a higher concentration of substrates (approximately 4-fold to Km) for 0, 5, 10, 15, and 30 min. The incubation scheme was performed as described above. The fitting equation to obtain the value of KI and Kinact was: 1/Kobs=KI/Kinact∗1/I+1/Kinact
# where Kobs is the pseudo-first-order rate constant of inactivation at inactivated concentration [I], Kinact is the maximum inactivation rate (a theoretical value that cannot be experimentally observed), and KI is the inactivated concentration when the rate of inactivation reaches half of Kinact.
# [5] = target: T3, CYP2C9 (Homo sapiens, UniProt P11712); assay: Time-dependent inhibition of CYP2C9 in pooled HLMs; format: in vitro ADME; settings: 20 μM obtusofolin, 5 to 30 min
# T3 construct: Pooled HLMs were obtained from BD Bioscience (Woburn, USA); tissue BD Bioscience; host or cells: pooled human liver microsomes
# Method: as §7
# [6] = target: T3, CYP2C9; assay: CYP2C9 inhibition in pooled human liver microsomes (diclofenac 4′-hydroxylation); format: in vitro ADME
# Method: as §1, §2, §3, §4, §5, §6
# [7] = target: T2, CYP2E1; assay: Time-dependent inhibition of CYP2E1 in pooled HLMs; format: in vitro ADME; settings: 20 μM obtusofolin, 5 to 30 min
# Method: as §7
# [8] = 100 μM obtusofolin, pooled HLMs, P < 0.05 vs negative control
# [9] = Lineweaver–Burk plots, best fit
# [10] = pooled HLMs, 0, 2.5, 5, 10, 25, 50, 100 μM obtusofolin, mean ± SD, triplicate
# T1 sequence (P08684 whole entry): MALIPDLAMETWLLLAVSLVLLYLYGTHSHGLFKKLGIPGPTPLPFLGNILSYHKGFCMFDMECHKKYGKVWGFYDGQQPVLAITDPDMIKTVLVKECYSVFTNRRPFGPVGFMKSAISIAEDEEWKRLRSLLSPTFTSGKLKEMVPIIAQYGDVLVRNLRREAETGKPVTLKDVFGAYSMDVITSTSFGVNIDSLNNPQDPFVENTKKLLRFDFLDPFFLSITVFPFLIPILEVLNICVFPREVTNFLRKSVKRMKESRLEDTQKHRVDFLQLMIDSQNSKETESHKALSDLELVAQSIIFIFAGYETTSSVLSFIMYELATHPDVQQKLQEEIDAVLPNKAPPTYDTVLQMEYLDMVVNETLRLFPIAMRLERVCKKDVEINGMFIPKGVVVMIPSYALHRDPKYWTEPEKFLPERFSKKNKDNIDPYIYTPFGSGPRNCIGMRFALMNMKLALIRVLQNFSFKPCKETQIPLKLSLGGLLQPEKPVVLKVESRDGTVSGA
# T3 sequence (P11712 whole entry): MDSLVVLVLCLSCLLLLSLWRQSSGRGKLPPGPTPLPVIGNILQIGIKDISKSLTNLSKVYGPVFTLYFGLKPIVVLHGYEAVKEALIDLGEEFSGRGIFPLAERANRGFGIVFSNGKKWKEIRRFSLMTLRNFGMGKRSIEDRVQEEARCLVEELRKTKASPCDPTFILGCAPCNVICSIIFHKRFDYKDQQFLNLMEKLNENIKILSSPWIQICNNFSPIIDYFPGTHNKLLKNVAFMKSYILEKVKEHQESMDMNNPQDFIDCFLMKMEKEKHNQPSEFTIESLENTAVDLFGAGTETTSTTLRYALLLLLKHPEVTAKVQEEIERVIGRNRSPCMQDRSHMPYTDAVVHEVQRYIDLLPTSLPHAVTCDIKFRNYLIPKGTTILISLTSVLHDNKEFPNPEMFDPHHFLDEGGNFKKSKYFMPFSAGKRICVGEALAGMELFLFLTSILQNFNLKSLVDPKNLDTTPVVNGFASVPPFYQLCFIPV
# T2 sequence (P05181 whole entry): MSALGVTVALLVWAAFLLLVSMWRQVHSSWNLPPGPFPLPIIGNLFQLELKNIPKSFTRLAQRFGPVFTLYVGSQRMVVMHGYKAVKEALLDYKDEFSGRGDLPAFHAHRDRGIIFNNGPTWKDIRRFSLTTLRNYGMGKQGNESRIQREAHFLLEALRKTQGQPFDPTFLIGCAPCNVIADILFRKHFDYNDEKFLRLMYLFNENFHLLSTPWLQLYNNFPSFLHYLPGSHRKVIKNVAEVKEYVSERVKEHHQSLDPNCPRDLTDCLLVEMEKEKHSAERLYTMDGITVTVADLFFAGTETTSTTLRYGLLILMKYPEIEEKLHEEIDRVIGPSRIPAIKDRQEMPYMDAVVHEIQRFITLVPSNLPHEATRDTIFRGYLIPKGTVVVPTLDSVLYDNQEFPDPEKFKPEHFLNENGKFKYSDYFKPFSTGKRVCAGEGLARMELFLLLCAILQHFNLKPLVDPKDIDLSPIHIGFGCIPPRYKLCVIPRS
compound,measurement,setting,value
COc1c(O)c(C)cc2c1C(=O)c1c(O)cccc1C2=O [obtusofolin],activity of CYP3A4,[1]; [8],significantly suppressed
same,inhibition model of CYP3A4,[1]; [9],non-competitive
same,Ki,"[1]; non-competitive model, 20–100 μM testosterone, pooled HLMs",8.82 µM
same,IC50,[1]; [10],17.1 ± 0.25 µM
same,maximum (plasma concentration),[2],152.5 ± 62.3 ng/mL
same,activity of CYP2E1,[3]; [8],significantly suppressed
same,inhibition model of CYP2E1,[3]; [9],competitive
same,Ki,"[3]; competitive model, 25–250 μM chlorzoxazone, pooled HLMs",7.79 µM
same,IC50,[3]; [10],15.5 ± 0.16 µM
same,inhibitory effect on CYP3A4 versus incubation time,"[4]; 20 μM obtusofolin, 5 to 30 min",increased with the incubation time
same,kinact,"[4]; human, pooled human liver microsomes, 0, 2, 5, 10, 20, 50 μM obtusofolin, 0-30 min, substrate approx. 4-fold Km",0.000858 s⁻¹
same,CYP3A4 inactivated per minute,[4]; saturating concentration of obtusofolin,approximately 5.15%
same,inhibitory effect on CYP2C9 versus incubation time,[5],not affected
same,activity of CYP2C9,[6]; [8],significantly suppressed
same,inhibition model of CYP2C9,[6]; [9],competitive
same,Ki,"[6]; competitive model, 5–20 μM diclofenac, pooled HLMs",5.54 µM
same,IC50,[6]; [10],10.8 ± 0.13 µM
same,inhibitory effect on CYP2E1 versus incubation time,[7],not affected
